Test results as given in paper PMC10182713 (South African Journal of Botany, 2023).
In brackets after ≈: the same amount, converted by molar mass.

How the values were obtained:
[1] = test system: pathogenic and non-pathogenic Mycobacterium strains; type: cell-based
[2] = test system: Caco-2 cells; type: cell-based, human
[3] = test system: HepG2 liver cells; settings: human
[4] = test system: Mycobacterium smegmatis (ATCC 1441); experiment: microbe, parasite or virus in culture; type: cell-based; settings: for MIC: Mycolicibacterium smegmatis, ATCC1441, 24 h, read-out: MIC M. smegmatis
[5] = test system: M. tuberculosis H37RV (ATCC 27294); experiment: microbe, parasite or virus in culture; type: cell-based, Mycobacterium tuberculosis; settings: for MIC: Mycobacterium tuberculosis, ATCC27294|H37RV, read-out: MIC M. tb H37Rv
[6] = test system: M. fortuitum (ATCC 6841); experiment: microbe, parasite or virus in culture; type: cell-based, Mycobacterium fortuitum; settings: Mycolicibacterium fortuitum, ATCC6841, 24 h, read-out: MIC M. fortuitum
[7] = test system: C3A cells; type: cell-based
[8] = test system: M. bovis (ATCC 27290); experiment: microbe, parasite or virus in culture; type: cell-based, Mycobacterium bovis; settings: for MIC: Mycobacterium tuberculosis variant bovis, ATCC27290, read-out: MIC M. bovis
[9] = test system: Vero monkey kidney cells; type: cell-based
[10] = test system: Mycobacterium; settings: antimycobacterial activity; ref Boonphong et al., 2007; cited from earlier work
[11] = test system: HepG2 cells; settings: tert-butyl hyperoxide induced-toxicity on HepG2 cells; ref Kim et al. (2011); cited from earlier work
[12] = test system: M. aurum (NCTC 10437); experiment: microbe, parasite or virus in culture; type: cell-based, Mycobacterium aurum; settings: Mycolicibacterium aurum, NCTC10437, read-out: MIC M. aurum
[13] = in vitro; settings: human, Cell viability of HepG2 cells treated with the toxicant alone

COc1ccc(C2CC(=O)c3c(OC)cc(OC)cc3O2)cc1 (stereo not drawn) [5,7,4′-trimethoxy flavanone]
Antimycobacterial activity in words [1]: good activity
Selectivity index LC50/MIC M. bovis [2]: 3.175
Selectivity index LC50/MIC M. fortuitum [2]: 3.175
Selectivity index LC50/MIC M. smegmatis [2]: 3.175
Selectivity index LC50/MIC M. tb H37RV [2]: 6.452
Percentage hepatoprotective activity (cell viability) [3]: 85.674±0.0618%
MIC [4]: 63 µg/mL (≈ 200 µM)
MIC [5]: 31 µg/mL (≈ 98.6 µM)
MIC [6]: 63 µg/mL (≈ 200 µM)
Selectivity index LC50/MIC M. bovis [7]: 3.174
Selectivity index LC50/MIC M. fortuitum [7]: 3.174
Selectivity index LC50/MIC M. smegmatis [7]: 3.174
Selectivity index LC50/MIC M. tb H37RV [7]: 6.452
MIC [8]: 63 µg/mL (≈ 200 µM)
Selectivity index LC50/MIC M. bovis [9]: 3.206
Selectivity index LC50/MIC M. fortuitum [9]: 3.206
Selectivity index LC50/MIC M. smegmatis [9]: 3.206

4′-methoxykaempferol
Antimycobacterial activity in words [1]: weak
MIC M. smegmatis [4]: 250 µg/mL
MIC M. tb H37Rv [5]: 125 µg/mL
MIC M. bovis [8]: 125 µg/mL

COc1cc2oc(-c3ccc(O)cc3O)c(CC=C(C)C)c(=O)c2c(O)c1/C=C/C(C)C [artocarpin]
MIC [10]: 3 µg/mL (≈ 6.87 µM)

chaplashin
MIC [10]: 3 µg/mL

O=c1c(O)c(-c2ccc(O)c(O)c2)oc2cc(O)cc(O)c12 [quercetin]
Hepatoprotective activity in words [11]: significant hepatoprotective activity

CO[C@H]1/C=C/O[C@@]2(C)Oc3c(C)c(O)c4c(O)c(c(/C=N/N5CCN(C)CC5)c(O)c4c3C2=O)NC(=O)/C(C)=C\C=C\[C@H](C)[C@H](O)[C@@H](C)[C@@H](O)[C@@H](C)[C@H](OC(C)=O)[C@@H]1C [Rif (+ve con), rifampicin, reference compound]
MIC [12]: 4 µg/mL (≈ 4.86 µM)
Cell viability of HepG2 cells treated with the toxicant alone [3]: 65.27±0.184%
MIC [4]: 3.9 µg/mL (≈ 4.74 µM)
MIC [5]: 0.24 µg/mL (≈ 0.292 µM)
viability [13]: 65%
MIC [6]: 63 µg/mL (≈ 76.6 µM)
MIC [8]: 4 µg/mL (≈ 4.86 µM)
Selectivity index LC50/MIC M. aurum [9]: 23.500
Selectivity index LC50/MIC M. bovis [9]: 23.500
Selectivity index LC50/MIC M. fortuitum [9]: 1.492
Selectivity index LC50/MIC M. smegmatis [9]: 24.103
Selectivity index LC50/MIC M. tb H37RV [9]: >100

[H]/N=C(/N)N[C@H]1[C@H](O)[C@@H](O)[C@H](O[C@@H]2O[C@@H](C)[C@](O)(C=O)[C@H]2O[C@@H]2O[C@@H](CO)[C@H](O)[C@@H](O)[C@@H]2NC)[C@@H](N/C(N)=N\[H])[C@@H]1O [Strep (+ve con), streptomycin, reference compound]
MIC [12]: 4 µg/mL (≈ 6.88 µM)
MIC [4]: 3.9 µg/mL (≈ 6.71 µM)
MIC [5]: 0.24 µg/mL (≈ 0.413 µM)
MIC [6]: > 1000 µg/mL
MIC [8]: 4 µg/mL (≈ 6.88 µM)

COc1ccc(-c2oc3cc(OC)cc(O)c3c(=O)c2OC)cc1 [5‑hydroxy-3,7,4′-trimethoxyflavone]
Antimycobacterial activity in words [1]: good activity
Selectivity index LC50/MIC M. bovis [2]: 2.524
Selectivity index LC50/MIC M. fortuitum [2]: 2.524
Selectivity index LC50/MIC M. smegmatis [2]: 2.524
Selectivity index LC50/MIC M. tb H37RV [2]: 2.524
Percentage hepatoprotective activity (cell viability) [3]: 89.277±0.023%
MIC [4]: 63 µg/mL (≈ 192 µM)
MIC [5]: 63 µg/mL (≈ 192 µM)
MIC [6]: 63 µg/mL (≈ 192 µM)
Selectivity index LC50/MIC M. bovis [7]: 3.174
Selectivity index LC50/MIC M. fortuitum [7]: 3.174
Selectivity index LC50/MIC M. smegmatis [7]: 3.174
Selectivity index LC50/MIC M. tb H37RV [7]: 3.174
MIC [8]: 63 µg/mL (≈ 192 µM)
Selectivity index LC50/MIC M. fortuitum [9]: 3.127
Selectivity index LC50/MIC M. smegmatis [9]: 3.127
Selectivity index LC50/MIC M. tb H37RV [9]: 3.127

O=c1c(O[C@@H]2O[C@H](CO)[C@@H](O)[C@H](O)[C@H]2O)c(-c2ccc(O)c(O)c2)oc2cc(O)cc(O)c12 [hirsutrin]
Hepatoprotective activity in words [11]: significant hepatoprotective activity

O=c1c(O[C@@H]2O[C@@H](CO)[C@H](O)[C@H]2O)c(-c2ccc(O)c(O)c2)oc2cc(O)cc(O)c12 [avicularin]
Hepatoprotective activity in words [11]: significant hepatoprotective activity
